According to patent publication US10526343B2, “Heterocyclic systems and pharmaceutical applications thereof” (University of Sharjah, priority 2018, dated 2020):

What was measured:
[1] = system: Staphylococcus aureus (ATCC 25923); assay: Cell viability assay (resazurin) screening for antibacterial activity; type: cell-based; conditions: single high concentration of 1 mg/mL
[2] = system: Enterococcus faecalis (ATCC 29212); assay: as above; type: cell-based; set-up: key: Positive: A positive result indicates antibacterial activity expressed as growth inhibition; Negative: a negative result indicates no antibacterial activity expressed as bacterial growth at the tested concentration; conditions: single high concentration of 1 mg/mL
[3] = system: Pseudomonas aeruginosa (ATCC 27853); assay: as above; type: cell-based; set-up: key: Positive: A positive result indicates antibacterial activity expressed as growth inhibition; Negative: a negative result indicates no antibacterial activity expressed as bacterial growth at the tested concentration; conditions: single high concentration of 1 mg/mL
S. aureus (ATCC 25923) = assay: MIC by broth microdilution; type: cell-based; conditions: Staphylococcus aureus, ATCC25923
Protocol: Bacteria of the genus Staphylococcus were selected for MIC investigation due to its clinical importance. Compounds showing activity against S. aureus (ATCC 25923) were tested against 10 multidrug-resistant strains of Staphylococcus species, including: clinical isolates methicillin-resistant Staphylococcus aureus (MRSA) strains MRSA-1, MRSA-2, and MRSA-3, and environmental isolates S. saprophyticus (strains UDH-1, UDH-2, UDH-3 and UDH-4), S. haemolyticus (strains UDH-6 and UDH-7), and S. epidermidis strain UDH-5.
(§1) A broth microdilution method was used to measure MIC according to the Clinical and Laboratory Standards Institute guidelines. Two-fold serial dilutions of the test compound (8 concentrations ranged between 100-0.78 μg/mL) were tested. Two reference antibiotics were used as quality controls (ciprofloxacin and amikacin). In each experiment, solvent (DMSO) was used as a negative control, un-treated control (composing of bacteria in Mueller-Hinton broth) was used as a growth control, blank (culture media alone) was used as sterility control. The 96-well microplate with the test compounds was incubated for 20 hours at 37° C. Turbidity in wells indicated bacterial growth. […] For the definite determination of MIC, CellTiter-Blue® Cell Viability Assay (Promega, USA) was used (as above). The MIC was defined as the lowest compound concentration that prevented the color change of the Cell Viability solution (absence of bacterial growth; thus, suspension remained blue in color). For the definite determination of MIC, CellTiter-Blue® Cell Viability Assay (Promega, USA) was used (as above). To each well of the 96-well microplate, 20 μL of the Cell Viability Assay solution was added to the overnight (20 hours culture) and incubated at 37° C. for 4 hours. After the end of the incubation, pink and blue colors were used to differentiate viable from dead bacterial suspensions, respectively. The MIC was defined as the lowest compound concentration that prevented the color change.

[4] = system: MRSA-1 (clinical isolate, methicillin-resistant Staphylococcus aureus); assay: MIC by broth microdilution; type: cell-based
Protocol: (§2) Bacteria of the genus Staphylococcus were selected for MIC investigation due to its clinical importance.
as §1, with “Two reference antibiotics were used as quality controls (ciprofloxacin and amikacin).” left out

[5] = system: MRSA-2 (clinical isolate, methicillin-resistant Staphylococcus aureus); assay: MIC by broth microdilution; type: cell-based
Protocol: as §2
as §1, with “Two reference antibiotics were used as quality controls (ciprofloxacin and amikacin).” left out

[6] = system: MRSA-3 (clinical isolate, methicillin-resistant Staphylococcus aureus); assay: MIC by broth microdilution; type: cell-based
Protocol: as §2
as §1, with “Two reference antibiotics were used as quality controls (ciprofloxacin and amikacin).” left out

MRSA-1 = assay: Time-kill study; type: cell-based, Staphylococcus aureus
Protocol: Time-kill study: Compound 1o was tested for the time required to kill the bacterial strain MRSA-1. A time-kill assay was performed by the broth micro-dilution method in accordance with the CLSI guidelines. Inoculum suspensions with approximately 5×10^5 CFU/mL of exponentially growing bacterial cells were incubated in each well of a 96-well plate. […] Aliquots of 20 μL were removed from the inoculum culture after timed intervals of incubation (i.e. 0, 30 minutes, 1, 2, 4, 6, 8, and 24 hours), and serial 10-fold dilutions were prepared in 0.85% sodium chloride solution. Then, 10-100 μL of each dilution (as appropriate) were spread on the surface of Mueller-Hinton agar plates and incubated at 37° C. for 24 hours. Plate count technique was used to determine the number of viable cells for each time point. The experiments were performed in triplicate. Meropenem and ciprofloxacin were used as quality control antibiotics.

In the case of `COC(=O)CC1COc2c(cc3c4c2CCCN4CCC3)-c2c(NC(C)(C)C)n3c(-c4ccc(Br)cc4)c(C)sc3[n+]21` (stereo not shown) [Compound 1o], the “antibacterial activity, Staphylococcus aureus” value [1] is reported as “positive antibacterial activities”, the “antibacterial activity, Enterococcus faecalis” value [2] is reported as “Positive” and the “antibacterial activity, Pseudomonas aeruginosa” value [3] is reported as “Negative”. For the same compound, the MIC (S. aureus (ATCC 25923)) was 3.12 µg/mL, the “times lower than the MIC of ciprofloxacin” value ([4]; MRSA-1) was “approximately 10 times” and the MIC ([4]; Staphylococcus aureus, MRSA, clinical isolate) was 3.12 µg/mL. The MIC [5] was 3.12 µg/mL, the MIC [6] was 3.12 µg/mL and the “time of exposure at which killing was achieved” value (MRSA-1; 12.5 μg/mL) was 6 h. For the same compound, the “time of exposure at which killing was achieved” value (MRSA-1; 25 μg/mL) was 2 h, the “time of exposure at which killing was achieved” value (MRSA-1; 3.125-6.25 μg/mL) was 24 h and the “time of exposure to complete elimination of MRSA growth” value (MRSA-1; concentration ≥50 μg/mL) was ≤ 30 min. For the same compound, the “time of exposure at which killing was achieved” value (MRSA-1; concentrations between 50-100 μg/mL) was 0.5 h.
